Our source for the IC50 and EC50 values is patent US12344611B2, “Bridged cycloformylpyridine derivatives and uses thereof” (BroadenBio Co., Ltd., priority 2019, dated 2025).

Broadly, the IC50 is the concentration that inhibits the measured activity by half. One may read the EC50 as the concentration that produces a half-maximal response. Read a high EC50 as a need for much substance.

The target of one assay is FGFR4 (Homo sapiens, UniProt P22455). The experiment in a line: In vitro biochemical kinase analysis of FGFR4 (HTRF KinEASE-TK). The conditions noted are these: HTRF kinase assay. Here is the method:
In Vitro Biochemical Kinase Analysis of FGFR4
FGFR4 protein kinase detection kit was purchased from Cisbio (HTRF KinEASE-TK kit). Prepare 1× kinase reaction buffer. Transfer 10 nL of a diluted compound to each well of a reaction plate (784075, Greiner) with an Echo 550, and seal the plate with sealing film. The reaction plate was centrifuged at 1000 g for 1 minute. Prepare 2×FGFR4 using 1× kinase reaction buffer, add 5 μL of kinase to each well of the reaction plate, seal the plate, centrifuge at 1000 g for 30 seconds, and incubate it at room temperature for 10 minutes. Prepare a mixture of 2×TK-substrate-biotin and ATP using 1× kinase reaction buffer, add 5 μL of TK-substrate-biotin/ATP mixture to the reaction plate, seal the plate with sealing film, centrifuge at 1000 g for 30 seconds, and react at room temperature for 40 minutes. Prepare 2×Sa-XL 665 and TK-antibody-Cryptate mixture using HTRF detection buffer, add 10 μL Sa-XL 665 and TK-antibody-Cryptate mixture to each well, centrifuge at 1000 g for 30 seconds, and react at room temperature for 1 hour. Envision 2104 read fluorescence signals at 615 nm (Cryptate) and at 665 nm (XL665). IC50 of the compound was calculated using the GraphPad nonlinear fitting formula.

Another assay concerns Hep 3B hepatoma cells. The assay is described as follows: In vitro cell proliferation assay (CellTiter-Glo, CTG), Hep 3B. Type of assay: cell-based, human. The conditions noted are these: Hep 3B cells. As to the method:
(§1) In Vitro Cell Proliferation Assay of FGFR4 (CellTiter-Glo Luminescent Cell Viability Assay, CTG Assay)
(§2) Hep 3B hepatoma cells were purchased from Cell Resource Center of Peking Union College, and HuH-7 hepatoma cells were purchased from Shanghai Biological Technology Co., Ltd. enzyme research. The cells were prepared at a concentration of 3×10^4/mL, which was then added with 100 μL to each well of a 96-well transparent flat-bottom black-walled plate to make 3000 cells per well. Incubate overnight at 37° C. in 5% CO2 incubator. Dilute a compound and add it to the wells having the cells, then add cell culture medium to 200 μL per well. Put in CO2 incubator for incubation. After 96 hours, 100 μL of culture medium was removed from each well, 100 μL of CTG was added, and the 96-well plate was placed on a shaker for 10 minutes, and placed in the shade at room temperature for 45 minutes. Data was read out by SoftMax Pro i3X Microplate Reader of MD, analyzed by the software GraphPad Prism 5.0, and S-shaped dose-response curve was drawn, then the EC50 values were calculated.
(In general: Cellular ATP, detected with luciferase, serves as a proxy for viable cell number.)

A further assay concerns HuH-7 hepatoma cells. The assay is described as follows: In vitro cell proliferation assay (CellTiter-Glo, CTG), HuH-7. The class given is cell-based. The conditions noted are these: HuH-7 cells. Here is the method: as §1, §2

Molecules are shown by their SMILES. Where only a bound is given, the exact number is not on record here.

Chain of FGFR4 (P22455 22-802): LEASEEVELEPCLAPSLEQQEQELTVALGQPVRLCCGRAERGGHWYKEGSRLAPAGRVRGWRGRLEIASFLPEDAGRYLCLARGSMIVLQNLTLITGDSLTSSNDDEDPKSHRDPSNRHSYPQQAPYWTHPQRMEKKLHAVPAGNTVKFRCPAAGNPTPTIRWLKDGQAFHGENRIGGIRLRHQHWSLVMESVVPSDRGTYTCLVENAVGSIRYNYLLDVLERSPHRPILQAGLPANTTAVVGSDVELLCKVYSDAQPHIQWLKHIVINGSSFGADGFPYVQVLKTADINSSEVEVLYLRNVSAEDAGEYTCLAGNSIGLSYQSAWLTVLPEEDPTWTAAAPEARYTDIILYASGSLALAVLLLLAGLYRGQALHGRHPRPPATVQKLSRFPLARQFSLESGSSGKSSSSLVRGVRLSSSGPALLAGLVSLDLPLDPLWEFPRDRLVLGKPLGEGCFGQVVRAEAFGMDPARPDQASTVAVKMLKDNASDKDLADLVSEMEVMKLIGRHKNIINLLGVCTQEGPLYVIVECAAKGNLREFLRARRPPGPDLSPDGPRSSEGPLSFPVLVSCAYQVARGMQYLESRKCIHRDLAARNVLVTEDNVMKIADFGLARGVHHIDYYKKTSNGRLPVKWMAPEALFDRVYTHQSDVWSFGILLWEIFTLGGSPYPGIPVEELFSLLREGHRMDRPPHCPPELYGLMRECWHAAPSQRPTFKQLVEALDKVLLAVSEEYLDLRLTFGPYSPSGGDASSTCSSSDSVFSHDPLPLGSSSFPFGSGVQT

As for `COC1CCCC1Nc1cc(NC(=O)N2c3nc(C=O)c(CN4CCN(C)CC4=O)cc3C3(F)CC2C3)ncc1C#N` (single isomer, unassigned) [Compound 11-P1, N-(5-cyano-4-(((trans)-2-methoxycyclopentyl)amino)pyridin-2-yl)-4-fluoro-7-formyl-64(4-methyl-2-oxopiperazin-1-yl)methyl)-3,4-dihydro-2,4-methylene-1,8-naphthyridine-1(2H)-carboxamide], 1.3 nM corresponded to half-maximal inhibition against FGFR4 (IC50). Also, the figures for the 50% effective concentration (EC50) in the assay with Hep 3B hepatoma cells (96 hours) and in the assay with HuH-7 hepatoma cells (96 hours) were 5.6 nM and 0.2 nM, respectively.
The corresponding values for `COC1CCCC1Nc1cc(NC(=O)N2c3nc(C=O)c(CN4CCN(C)CC4=O)cc3C3(F)CC2C3)ncc1C#N` (single isomer, unassigned) [Compound 11-P2, N-(5-cyano-4-(((trans)-2-methoxycyclopentyl)amino)pyridin-2-yl)-4-fluoro-7-formyl-64(4-methyl-2-oxopiperazin-1-yl)methyl)-3,4-dihydro-2,4-methylene-1,8-naphthyridine-1(2H)-carboxamide] are 9.8 nM, 32.1 nM and 73.1 nM.
The corresponding values for `COC1CCCC1Nc1cc(NC(=O)N2c3nc(C=O)c(CN4CCN(C)CC4=O)cc3C3(F)CC2C3)ncc1C#N` (single isomer, unassigned) [Compound 12-P1, N-(5-cyano-4-(((cis)-2-methoxycyclopentyl)amino)pyridin-2-yl)-4-fluoro-7-formyl-64(4-methyl-2-oxopiperazin-1-yl)methyl)-3,4-dihydro-2,4-methylene-1,8-naphthyridine-1(2H)-carboxamide] are 2.1 nM, 8.6 nM and 0.9 nM.
`COC1CCCC1Nc1cc(NC(=O)N2c3nc(C=O)c(CN4CCN(C)CC4=O)cc3C3(F)CC2C3)ncc1C#N` (single isomer, unassigned) [Compound 12-P2, N-(5-cyano-4-(((cis)-2-methoxycyclopentyl)amino)pyridin-2-yl)-4-fluoro-7-formyl-64(4-methyl-2-oxopiperazin-1-yl)methyl)-3,4-dihydro-2,4-methylene-1,8-naphthyridine-1(2H)-carboxamide] returned an IC50 against FGFR4 of 10.9 nM. The figures for the EC50 with Hep 3B hepatoma cells (96 hours) and in the assay on HuH-7 hepatoma cells (96 hours) were 39 nM and 95.2 nM, respectively.
As to `COCCNc1cc(NC(=O)N2c3nc(C=O)ccc3C3(F)CC2C3)ncc1C#N` [Compound 1, N-(5-cyano-4-((2-methoxyethyl)amino)pyridin-2-yl)-4-fluoro-7-formyl-3,4-dihydro-2,4-methylene-1,8-naphthyridine-1(2H)-carboxamide], at FGFR4, it took 0.4 nM to reach half-maximal inhibition (IC50). Moreover, the EC50 in the assay on Hep 3B hepatoma cells (Homo sapiens, Hep3B, 96 h) came out at 15.1 nM; with HuH-7 hepatoma cells (Homo sapiens, Huh-7, 96 h), 62 nM.
The corresponding values for `COCCNc1cc(NC(=O)N2c3nc(C=O)ccc3C3(O)CC2C3)ncc1C#N` [Compound 2, N-(5-cyano-4-((2-methoxyethyl)amino)pyridin-2-yl)-7-formyl-4-hydroxy-3,4-dihydro-2,4-methylene-1,8-naphthyridine-1(2H)-carboxamide] are 2.2 nM, 8.1 nM and 52 nM.
The like results for `COCCNc1cc(NC(=O)N2c3nc(C=O)ccc3C3(OC)CC2C3)ncc1C#N` [Compound 3] were, in that order, 1.6 nM, 13.4 nM and 42 nM.
The like results for `COCCNc1cc(NC(=O)N2c3nc(C=O)c(CN4CCN(C)CC4=O)cc3C3(O)CC2C3)ncc1C#N` [Compound 5, N-(5-cyano-4-((2-methoxyethyl)amino)pyridin-2-yl)-7-formyl-4-hydroxy-6-((4-methyl-2-oxopiperazin-1-yl)methyl)-3,4-dihydro-2,4-methylene-1,8-naphthyridine-1(2H)-carboxamide] were, in that order, 1.8 nM, 27 nM and 49 nM.
Compound `COC[C@@H](C)Nc1cc(NC(=O)N2c3nc(C=O)c(CN4CCN(C)CC4=O)cc3C3(F)CC2C3)ncc1C#N` [Compound 6, (R)—N-(5-cyano-4-((1-methoxyprop-2-yl)amino)pyridin-2-yl)-4-fluoro-7-formyl-6-((4-methyl-2-oxopiperazin-1-yl)methyl)-3,4-dihydro-2,4-methylene-1,8-naphthyridine-1(2H)-carboxamide] showed an IC50 at FGFR4 of 2.1 nM. Moreover, the EC50 with Hep 3B hepatoma cells (Homo sapiens, Hep3B, 96 h) was determined as 3.3 nM; in the assay on HuH-7 hepatoma cells (Homo sapiens, Huh-7, 96 h) it was 5.9 nM.
The like results for `COCCNc1cc(NC(=O)N2c3nc(C=O)c(CN4CCN(C)CC4)cc3C3(F)CC2C3)ncc1C#N` [Compound 7] were, in that order, 5.1 nM, 669 nM and over 1000 nM.
The corresponding values for `COCCNc1cc(NC(=O)N2c3nc(C=O)c(CN(C)C(=O)CN(C)C)cc3C3(F)CC2C3)ncc1C#N` [Compound 8] are 2.6 nM, 11.8 nM and 28 nM.
As for `COCCOc1cc(NC(=O)N2c3nc(C=O)c(CN4CCN(C)CC4=O)cc3C3(F)CC2C3)ncc1C#N` [Compound 9], the IC50 against FGFR4 was determined as 4.9 nM. For the same compound, the EC50 with Hep 3B hepatoma cells (Homo sapiens, Hep3B, 96 h) was 58 nM; in the assay on HuH-7 hepatoma cells (Homo sapiens, Huh-7, 96 h), 71 nM.
Compound `CN1CCN(Cc2cc3c(nc2C=O)N(C(=O)Nc2cc(NC4CCOC4)c(C#N)cn2)C2CC3(F)C2)C(=O)C1` (stereo not drawn) [Compound 10, N-(5-cyano-4-((tetrahydrofuran-3-yl)amino)pyridin-2-yl)-4-fluoro-7-formyl-6-((4-methyl-2-oxopiperazin-1-yl)methyl)-3,4-dihydro-2,4-methylene-1,8-naphthyridine-1(2H)-carboxamide] registered an IC50 against FGFR4 of 3.8 nM. The EC50 with Hep 3B hepatoma cells (Homo sapiens, Hep3B, 96 h) amounted to 10 nM; with HuH-7 hepatoma cells (Homo sapiens, Huh-7, 96 h) it was 20 nM.
As to `COCCNc1cc(NC(=O)N2c3nc(C=O)c(CN4CCOCC4=O)cc3C3(F)CC2C3)ncc1C#N` [Compound 13], the IC50 against FGFR4 came out at 6.9 nM. Further, the EC50 came out at 12.6 nM in the assay with Hep 3B hepatoma cells (Homo sapiens, Hep3B, 96 h) and 74 nM in the assay on HuH-7 hepatoma cells (Homo sapiens, Huh-7, 96 h).
The corresponding values for `COCCNc1cc(NC(=O)N2c3nc(C=O)c(CN4CCCCOC4=O)cc3C3(F)CC2C3)ncc1C#N` [Compound 14] are 3.3 nM, 7.8 nM and 28 nM.
As for `CN1CCN(Cc2cc3c(nc2C=O)N(C(=O)Nc2ccc(C(F)(F)F)cn2)C2CC3(F)C2)C(=O)C1` [Compound 16, N-(5-(trifluoromethyl)pyridin-2-yl)-4-fluoro-7-formyl-6-((4-methyl-2-oxopiperazin-1-yl)methyl)-3,4-dihydro-2,4-methylene-1,8-naphthyridine-1(2H)-carboxamide], at FGFR4, the IC50 is 23.2 nM. The 50% effective concentration (EC50) was 638 nM with Hep 3B hepatoma cells (Homo sapiens, Hep3B, 96 h) and over 1000 nM in the assay with HuH-7 hepatoma cells (Homo sapiens, Huh-7, 96 h).
On FGFR4, `COCCNc1cc(NC(=O)N2c3nc(C=O)c(CN4CCN(C)CC4=O)cc3C3CC2C3)ncc1C#N` [Compound 18, N-(5-cyano-4-((2-methoxyethyl)amino)pyridin-2-yl)-7-formyl-6-((4-methyl-2-oxopiperazin-1-yl)methyl)-3,4-dihydro-2,4-methylene-1,8-naphthyridine-1(2H)-carboxamide] returned an IC50 of 2.5 nM. Also, the EC50 worked out at 5.6 nM in the assay on Hep 3B hepatoma cells (Homo sapiens, Hep3B, 96 h) and 15.1 nM with HuH-7 hepatoma cells (Homo sapiens, Huh-7, 96 h).
The like results for `CCc1cc2c(nc1C=O)N(C(=O)Nc1cc(NCCOC)c(C#N)cn1)C1CC2(F)C1` [Compound 21] were, in that order, 2.1 nM, 15.8 nM and 28.4 nM.
